Test results as given in US7285619B2, “Echinocandin derivatives, their method of preparation and their application as anti-fungal agents” (Aventis Pharma S.A., priority 1997, dated 2007).

Tested on: glucane Synthesis of Candida albicans
Assay: Inhibition of the glucane synthesis of Candida albicans (membrane preparation, 14C-UDP glucose incorporation)
Format: biochemical
Settings: purified Candida albicans membranes, 25° C., 1 hour, result in words
Description: Tablets have been prepared containing: • The product of example 14 . . . 150 mg • Excipient q.s.p. . . . 1 g (Detail of the excipient: starch, talc, magnesium stearate). Pharmacological Study A—Inhibition of the glucane Synthesis of Candida albicans.
The membranes of Candida albicans are purified according to the process described by Tang and al Antimicrob. Agents Chemother 35, 99-103, 1991. 22.5 μg of membrane proteins are incubated in a mixture of 2 Mm of 14C-UDP glucose (specific activity=0.34 mCi./mmol, 50 μg of α-amylase, 1 Mm of dithiotreitol (DTT), 1 Mm EDTA, 100 Mm NaF, 7 μM of GTP-γ-S, 1M of sucrose and 5 oMm OF Ttris-HCL (pH 7.8) in a volume of 100 μl. The medium is incubated at 25° C. for 1 hour and the reaction terminated by addition of TCA to a final concentration of 5%. The reaction medium is transferred onto a pre-humidified glass fibre filter. The filter is washed, dried and its radioactivity is counted.
Mulundocandin is used as positive control.
The control of the medium is carried out with the same quantity of DMSO 1%.

Compound | activity in the test of inhibition of the glucane synthesis of Candida albicans
CCCCCCCCOc1ccc(-c2ccc(C(=O)NC3CC(NCCN)CNC(=O)C4C(O)C(C)CN4C(=O)C(CO)NC(=O)C(C(O)Cc4ccc(O)cc4)NC(=O)C4CC(O)CN4C(=O)C(C(C)O)NC3=O)cc2)cc1.O=C(O)C(F)(F)F (single isomer, unassigned; isomer a) [Example 14, Trifluoroacetate of 1-[4-[(2-aminoethyl)amino]N2-[[4′-(octyloxy)[1.1′-biphenyl]-4-yl]carbonyl]-L-ornithine]4-[4-(4-hydroxyphenyl)-L-threonine]-5-L Serine Echinocandin B (Isomer A)] | good activity
(±) Trifluoroacetate of 1-[4-[(aminoiminomethyl) Hydrazono]-N2-(12-methyl-1-oxotetradecyl)-L-ornithine]4-[4-(4-hydroxyphenyl)-L-threonine]-5-L Serine Echinocandin B [Example 11] | good activity
Trifluoroacetate of 1-[4-[(2-aminoethyl)amino]-N2-(12-methyl-1-oxotetradecyl)-L-ornithine]4-[4-(4-hydroxyphenyl)-L-threonine]-5-L Serine Echinocandin B (Isomer A and Isomer B) [Example 9] | good activity
